Measured values from patent US20250367160A1, “USE OF GUAIJAVERIN IN PREPARATION OF EYE PROTECTION PRODUCT” (Innovation Center of Yangtze River Delta, ZJU, priority 2024, published 2025).

Test system: ocular apoptotic cells of the zebrafish
Assay: Anti-blue light eye protection efficacy, AO staining of ocular apoptotic cells in zebrafish blue light eye damage model
Assay type: in vivo
Settings: for Fluorescence intensity of ocular apoptotic cells (pixel, mean ± SE): aqueous, 28° C., 1 d, n = 10, model group 45833 ± 4825, normal control 12203 ± 1124
Experimental: Wild-type AB zebrafish at 1 dpf were randomly selected and irradiated with blue light after membrane rupture to establish the zebrafish blue light eye damage model. Model zebrafish with desirable development status were selected at 3 dpf and randomly distributed in 6-well plates, with 30 zebrafish in each well (experimental group) were treated. Different concentrations of guaijaverin (see Table 2 for concentrations) were administered aqueously, and lutein at a concentration of 62.5 μg/mL were used as a positive control, while a normal control group and a model group were also set up, with a volume of 3 mL per well. After 1 d of treatment at 28° C., the zebrafish in each experimental group were stained with AO in the dark for 30 min and washed 3 times with standard dilution water. 10 zebrafish were randomly selected from each experimental group and photographed under a fluorescence microscope. The data were analyzed and collected using Image J software. The fluorescence intensity of ocular apoptotic cells of the zebrafish was statistically analyzed. The anti-blue light eye protection efficacy of guaijaverin was evaluated based on the statistical analysis results of the above indicators. The statistical result was expressed as mean±SE.

SMILES: O=c1c(O[C@@H]2OC[C@H](O)[C@H](O)[C@H]2O)c(-c2ccc(O)c(O)c2)oc2cc(O)cc(O)c12 [Guaijaverin, guaijaverin]
- Fluorescence intensity of ocular apoptotic cells (pixel, mean ± SE) (62.5 μg/mL): 31471 ± 2353 pixel
- eye protection effect against blue optical damage compared with lutein (125 μg/mL vs lutein 62.5 μg/mL): same significant eye protection effect as lutein
- Fluorescence intensity of ocular apoptotic cells (pixel, mean ± SE) (125 μg/mL): 24765 ± 2077 pixel
- eye protection effect against blue optical damage compared with lutein (150 μg/mL vs lutein 62.5 μg/mL): more significant eye protection effect than lutein
- Fluorescence intensity of ocular apoptotic cells (pixel, mean ± SE) (150 μg/mL): 18149 ± 1688 pixel
